Reference: PMC4279401 (Oncotarget, 2014)
“And” between values parts separate entries of the source, which are not always exact repeats. Equal values may be shown once. “Also recorded” adds a separate entry of the source. Read-outs that look alike come from different tables or passages of the source. Values belong to the compound of their own block, whether it stands above or below them.

Key:
[1] = test system: MDA-MB231 cells; assay: Quantitative PCR of EMT genes; format: cell-based, Human; details: MDA-MB231, qPCR, dose-dependent, in words
Experimental: 10^4 cells/well were incubated with compounds for 14 days with media containing compounds replaced every 3-4 days. Total RNA was extracted from cells using RNeasy mini kit (Qiagen). 100-1000 ng of total RNA was reverse transcribed using iScript™ Reverse Transcription Supermix (Bio-Rad) according to the manufacturer's protocol. Quantitative real-time PCR was carried out using the RT^2 SYBR Green ROX™ qPCR Mastermix (Qiagen) according to the manufacturer's instructions. Measurements were performed in triplicate, using GAPDH or human 18S ribosomal RNA as a reference gene. The sequences of primers used are listed in the Supplementary Table. Real-time PCR was performed using the ABI Prism 7300 sequence detection system.

[2] = test system: MDA-MB231 cells; assay: CD44/CD24 flow cytometry; format: cell-based, Human; details: MDA-MB231, FACS, in words
Experimental: (§1) 5 × 10^4 cells/well were incubated with compounds for 14 days. The ALDH activity of cells was determined by using the ALDEFLUOR assay kit (StemCell Technologies) according to the manufacturer's instructions. Combinations of fluorochrome-conjugated monoclonal antibodies against human CD44-FITC and CD24-PE were obtained from BD Biosciences. Primary antibodies or the respective isotype controls (BD Biosciences) were added to the cell suspension, according to the manufacturer's recommendation, and incubated at 4°C for 20 min. Dead cells were eliminated using propidium iodide (Sigma). The labelled cells were analyzed on a FACS Calibur (BD Biosciences/Applied Biosystems).

[3] = test system: A549; assay: Cell proliferation, MTT assay; format: cell-based, Human; details: in words
[4] = in vivo; cited from earlier work
[5] = test system: MDA-MB231 cells; assay: Cell cycle analysis, propidium iodide FACS; format: cell-based, Human; details: MDA-MB231, in words
Experimental: (§2) For apoptosis and cell cycle analysis, 10^5 cells/well were incubated with increasing concentrations of a compound for 7 or 10 days. Apoptosis was determined using the FITC Annexin V Apoptosis Detection Kit I (BD Bioscience) according to the manufacturer's protocol. Cells for cell cycle analysis were fixed in cold 70% ethanol at 4°C and stained with Propidium iodide (Sigma-Aldrich) (20 μg/ml) and RNase A (10 μg/ml) for 30min. Cells were analyzed using a FACS Calibur (BD Biosciences/Applied Biosystems) and data were processed using the program Flowjo (version7.6.5).

[6] = test system: MDA-MB231; assay: Transwell cell migration assay; format: cell-based, Human; details: MDA-MB231, Transwell with and without Matrigel, in words
Experimental: 5 × 10^4 cells/well were incubated with compounds for 14 days. For transwell migration assays, 5× 10^4 cells were plated in the top chamber with the non-coated membrane (24-well insert; pore size, […]; BD Biosciences). For invasion assays, 5× 10^4 cells were plated in the top chamber with Matrigel-coated membrane. The cells on the apical side of each insert were then scraped off after 22 h for both assays. The wells were washed with PBS, fixed with 100% methanol and stained with DAPI. Cells that had migrated to the basal side of the membrane were visualized and counted with a Nikon Eclipse TE2000-U microscope at 10×. Pictures of three random fields were obtained and the number of cells that had migrated quantified using ImageJ analysis software.

[7] = test system: MDA-MB231 cells; assay: Apoptosis, Annexin V FACS; format: cell-based, Human
Experimental: as §2

[8] = test system: MDA-MB231 cells; assay: Microarray gene set enrichment analysis; format: cell-based, Human; details: 1 at 5 μM, 2 at 10 μM, in words
Experimental: 10^5 cells/well were incubated with compounds for 14 days. Cells were lysed immediately in TRIzol® Reagent, frozen in liquid nitrogen, and shipped to Asuragen, Inc. (Austin, TX) for microarray experiments. RNA was isolated, amplified, and hybridized to Illumina Human HT-12 v4 arrays according to the manufacturer's protocol. Microarray data were log2 transformed and then normalized to have the same median for all the arrays. Moderate t-statistics were used to test if genes were differentially expressed between the groups of interest. Benjamini and Hochberg method was used to correct for multiple comparisons. R and Bioconductor packages were used for all the statistical analyses (http://cran.us.r-project.org/, http://www.bioconductor.org/). Gene set enrichment analysis was performed using GSEA software from Broad Institute (Boston, MA).

[9] = test system: MDA-MB231 cells; assay: ALDEFLUOR assay; format: cell-based, Human; details: in words
Experimental: as §1

[10] = test system: H3K27 methylation; assay: Western blot of histone methylation in BT549; format: cell-based, Human
Experimental: (§3) 10^6 cells/well were incubated with increasing concentrations of a compound for 5 days and histones extracted with the EpiQuik™ Total Histone Extraction Kit (Epigentek) according to the manufacturer's protocol. Equal amounts of histones (2μg) were separated on SDS-PAGE and transferred to PVDF membranes. The blots were probed with primary antibodies, followed by anti-rabbit IgG (Thermo Scientific) secondary antibodies. For western blot analysis of MDA-MB231 xenograft tumors, tumors were harvested and frozen in liquid nitrogen. Histones were extracted and analyzed by immunoblotting as described above.

[11] = test system: MDA-MB231; assay: Cell proliferation, MTT assay; format: cell-based; details: Homo sapiens
[12] = test system: MCF-7; assay: Cell proliferation, MTT assay; format: cell-based; details: Homo sapiens
[13] = test system: BT549; assay: Cell proliferation, MTT assay; format: cell-based; details: Homo sapiens
[14] = test system: MDA-MB231, BT549 and MCF-7 breast cancer cells; assay: Cell proliferation, MTT assay, DOT1L+ breast cancer cells; format: cell-based, Human; details: Homo sapiens
[15] = target: EZH2; details: read-out: Ki against EZH2; cited from earlier work
[16] = test system: H3K79 methylation; assay: Western blot of histone methylation in MDA-MB231; format: cell-based, Human; details: for effect on H3K79 methylation: in words
Experimental: (§4) Human cell lines BT549, MDA-MB231, MCF-7, MDA-MB157, HCC70, A549 and NB4 were obtained from the American Type Culture Collection (ATCC) and cultured using ATCC recommended conditions. Primary antibodies against H3K79me2, H3K27me3, H3K4me3, H3K36me2, H4K20me3, H3K9me-pan were purchased from Cell Signaling (Danvers, MA). siRNA experiments were performed by transfecting MDA-MB-231 cells with X-tremeGENE Transfection Reagent (Roche) and 10 nM siRNA (Invitrogen), according to the manufacturer's protocol.
as §3

[17] = test system: MDA-MB231; assay: Cell proliferation after DOT1L siRNA; format: cell-based, Human; details: MDA-MB231, siRNA treatment, in words
Experimental: as §4, with “protocol. The sequences for DOT1L siRNA (Invitrogen) were: • siRNA-1: 634-[…]; • siRNA-2: 117-[…]; • siRNA-3: 104-[…]; • siRNA-4: 470-[…]; • siRNA-5: 120-[…]. • siRNA-`mock represents an siRNA that has no homology to any vertebrate transcriptome.” for “protocol.”

[18] = target: other lysine methyltransferases; details: read-out: Ki against other lysine methyltransferases; cited from earlier work
[19] = test system: methylation at H3K4, H3K9, H3K27, H3K36 and H4K20; assay: Western blot of methylation at other histone lysines in MDA-MB231; format: cell-based, Human; details: at concentrations of <1 μM, in words
Experimental: as §3

[20] = test system: H3K27 methylation; assay: Western blot of histone methylation in MDA-MB231; format: cell-based; details: Homo sapiens, MDA-MB-231, Fig. 4b, read-out: IC50 against H3K27 methylation
Experimental: as §3

Compound: CC(C)N(CCCNC(=O)Nc1ccc(C(C)(C)C)cc1)CC1OC(n2cnc3c(N)ncnc32)C(O)C1O (centres unmarked) [Compound 2, SYC-522]
gene expression of E-cadherin [1]: increase | gene expression of TGF-β, Snail and Zeb [1]: significantly reduce | CD44+/CD24− cell population [2]: significantly decreased | cell population expressing high levels of CD24 [2]: considerably more cells expressed higher levels of CD24; also recorded: increased cell population | activity against A549 cells [3]: negligible activity | pharmacokinetics [4]: poor pharmacokinetics with short plasma half-lives | sub-G1 phase cell population [5]: increased sub-G1 phase cell population; also recorded: moderately increased pre-G phase cell population | cell migration and invasion [6]: reduced abilities of cell migration and invasion | apoptosis ([7]; MDA-MB231, 2 μM, in words): negligible amount of apoptosis | apoptotic rate ([7]; MDA-MB231, 10 μM): 7.8% and ~ 8% | genes whose expression is low in breast CSCs (GSEA) [8]: upregulation | pro-proliferation genes in the PAM50 gene set (GSEA) [8]: downregulation | ALDH+ cell population [9]: considerably reduced

IC50 ([10]; Homo sapiens, BT-549, 5 days, breast cancer cells, Fig. 4d (BT549), read-out: IC50 of H3K27 methylation inhibition): ~0.05 µM | EC50 ([11]; MDA-MB-231, 72 h, MDA-MB231, 3-day treatment, read-out: Anti-proliferative activity EC50): 11 µM | EC50 ([11]; MDA-MB-231, 360 h, MDA-MB231, 15-day treatment, read-out: Anti-proliferative activity EC50): 13 µM | EC50 ([12]; MCF7, 72 h, MCF-7, 3-day treatment, read-out: Anti-proliferative activity EC50): 28 µM | EC50 ([12]; MCF7, 360 h, MCF-7, 15-day treatment, read-out: Anti-proliferative activity EC50): 12 µM | EC50 ([13]; BT-549, 72 h, BT549, 3-day treatment, read-out: Anti-proliferative activity EC50): 34 µM | EC50 ([13]; BT-549, 360 h, BT549, 15-day treatment, read-out: Anti-proliferative activity EC50): 35 µM | EC50 ([14]; three breast cancer cells, regardless of the treatment durations, read-out: anti-proliferation EC50): 11 to 35 µM
Compound: Cc1cc(C)c(CNC(=O)c2cc(-c3ccc(CN4CCOCC4)cc3)cc3c2cnn3C2CCCC2)c(=O)[nH]1 [Compound 5, EPZ005687]
selectivity of histone methylation inhibition ([10]; BT549, Western blot, in words): only inhibited H3K27 methylation | Ki [15]: 0.024 µM

Compound: siRNA-4: DOT1L siRNA (Invitrogen): 470-CCCAGAUGAUUGAUGAGAUCAAGAU (other strand not given here)
effect on H3K79 methylation [16]: significantly reduced H3K79 methylation | effect on cell proliferation [17]: inhibited cell proliferation

Compound: siRNA-3: DOT1L siRNA (Invitrogen): 104-CGCUGCCGGUCUACGAUAAACAUCA (other strand not given here)
effect on H3K79 methylation [16]: considerably weaker inhibition | effect on cell proliferation [17]: did not significantly affect the growth

Compound: siRNA-1: DOT1L siRNA (Invitrogen): 634-CGCGAGUUCAGGAAGUGGAUGAAAU (other strand not given here)
effect on H3K79 methylation [16]: significantly reduced H3K79 methylation | effect on cell proliferation [17]: slowed down cell proliferation; also recorded: significantly inhibited cell proliferation

Compound: Nc1ncnc2c1ncn2[C@@H]1O[C@H](CSCC[C@H](N)C(=O)O)[C@@H](O)[C@H]1O [SAH, S-adenosyl-homocycteine]
Ki [18]: > 1 µM | Ki [15]: 7.5 µM

Compound: siRNA-2: DOT1L siRNA (Invitrogen): 117-CGAUAAACAUCACGAUGCUGCUCAU (other strand not given here)
effect on H3K79 methylation [16]: considerably weaker inhibition | effect on cell proliferation [17]: did not significantly affect the growth

Compound: Nc1nccc2c1ncn2C1C=C(CO)C(O)C1O (centres unmarked) [Compound 4, 3-deazaneplanocin A]
inhibitory activity against methylation at H3K4, H3K9, H3K27, H3K36 and H4K20 [19]: no or negligible inhibitory activities; also recorded: negligible effects | EC50 ([11]; MDA-MB-231, 72 h, read-out: Anti-proliferative activity EC50): > 20 µM | EC50 ([11]; MDA-MB-231, 360 h, read-out: EC50, 15-day treatment): 0.035 µM | EC50 ([12]; MCF7, 72 h, read-out: Anti-proliferative activity EC50): > 20 µM | EC50 ([12]; MCF7, 360 h, read-out: EC50, 15-day treatment): 0.48 µM | EC50 ([13]; BT-549, 72 h, read-out: Anti-proliferative activity EC50): > 20 µM | EC50 ([13]; BT-549, 360 h, read-out: EC50, 15-day treatment): 0.065 µM | IC50 ([16]; Homo sapiens, MDA-MB-231, read-out: IC50 of H3K79 methylation inhibition): ~0.05 µM | IC50 [20]: > 6 µM | EC50 ([14]; 72 h, read-out: EC50, 3-day treatment): > 20 µM | EC50 ([14]; 360 h, read-out: anti-proliferation EC50): 0.035 to 0.48 µM
